Results reported in PMC7156724, “Potent BRD4 inhibitor suppresses cancer cell-macrophage interaction” (Nature Communications, 2020).
Several values for one entry are separate records, joined by “and”; a condition that tells them apart may be missing. Equal entries are not always repeated.

System: A2780 OC cells and TAMs
Assay: Orthotopic mouse OC model (intraperitoneal A2780 cells, with or without TAMs): tumor weight, ascitic fluid, IF and FACS
Type: in vivo
Excerpt: Shown are immunofluorescent staining of CD68 (macrophage marker, red) and E-Cadherin (cancer cells, green) (a) and quantification of CD68 positive cells (b) in vehicle, NHWD-870 treated H526 (n = 6) and A2780 (n = 5) tumors from Fig. 3a, b, respectively. Scale bar is 100 μm. […] Shown are representative immunofluorescent staining of Ki67 and CD68 (c) and quantification of percentage of Ki67+ cells in CD68+ cells (d). Scale bar is 30 μm. Data are presented as mean ± SEM of five different tumors. e Schematics of the animal experiments using an orthotopic mouse OC model, established by intraperitoneally injecting human A2780 cells into female recipient nude mice. Mice were then either untreated (Ctrl) or treated with NHWD-870 (PO, QD, 3 mg/kg) for 45 days. Half of the recipient mice received A2780 cells plus TAMs isolated from tumors of OC-bearing donor mice. f, g Tumor weights (f) and ascitic fluid volumes (g) at day 45 for mice in (e). […] Shown are representative immunofluorescent staining of Ki67 and CD68 (h) and quantification of Ki67^+CD68^− (i) or Ki67^+CD68^+ (j), or CD68^+ cells (k). Scale bar is 50 μm. Data are presented as mean ± SEM from five different mice. p values were calculated using two-tailed, unpaired t tests in this figure. *p < 0.05; **p < 0.01; ***p < 0.001. Source data are provided as a Source Data file.
To extend our findings, we examined the effects of NHWD-870 in an orthotopic mouse OC model, in which we intraperitoneally injected A2780 OC cells, alone or together with F4/80^+CD11b^+CD206^+ TAMs isolated from the tumor tissues of OC-bearing donor mice 3 days later (Fig. 4e). […] These phenotypes were due to increased proliferation of both tumor cells and macrophages (Ki67^+CD68^− and Ki67^+CD68^+ cells, respectively) (Fig. 4h–i, Ctrl+TAM vs Ctrl). […] The inability to rescue was not due to the limited amount of TAMs (Fig. 4k, CD68^+ cells and Supplementary Fig.11c, d, CD11b^+CD206^+ cells, NHWD-870+TAM vs Ctrl), but likely due to the limited number of proliferating TAMs (Fig. 4j, Ki67^+CD68^+ cells, NHWD-870+TAM vs Ctrl).
4–6 weeks old female BALB/c nude mice were used for most experiments, with the exception of 6–8 weeks old female C57BL/6 mice were used for B16F10 experiments, and 6–8 weeks old male BALB/c nude mice and SD rats were used for pharmacokinetic experiments. All animals were purchased from Shanghai SIPPR-Bk Lab Animal Co., Ltd. All animals were housed under a regimen of 12 h light/12 h dark cycles and specific pathogen-free conditions. 5×10^6 NCI-H526, ES-2, MDA-MB231, A2780, A375, B16F10, and TMD-8 cells (0.1 ml) were injected subcutaneously into female nude mice. The melanoma patient-derived xenograft model was derived from a human melanoma sample (BRAF, NARS and NF1 wild type, and p53 mutant) removed from a patient in Xiangya Hospital. Surgically removed tumor fragments were implanted subcutaneously into female NSG mice. […] Mouse body weight and tumor sizes were measured every 3 days. […] Ascitic volume and tumor weight were measured by an electronic balance. All the procedures were evaluated and approved by the Institutional Animal Care and Use Committee of Central South University and Yale University. […]
with anti-CD45, CD11b and CD206 followed by FACS analysis. Shown are representative FACS plots (c) and quantification of the percentage of CD11b+CD206+ cells (d). Data are presented as mean ± SEM from 5 different mice. p values were calculated using two-tailed, unpaired t tests. **, p<0.01; ***, p<0.001. […]

[1] = day 45, PO, QD, 3 mg/kg, +TAM, 3 mg/kg

With `Cc1nnn(C)c1-c1cnc2c3c4cnn(C)c4ccc3n([C@H](c3ccccc3)C3CCOCC3)c2c1` [NHWD-870] the “quantification of CD68+ cells” value [1] was 15 and 17.9 and 19.9 and 12 and 16.7, the “quantification of Ki67+CD68− cells” value [1] was 10 and 7 and 13 and 9 and the “fold reduction, in vivo effects on TAMs” value (in vivo) was ~ 16 fold. For the same molecule, the “inhibition of proliferating TAMs” value (mouse OC model, Fig. 4j) was 94% and the “proliferating TAMs (Ki67+CD68+ cells), mean” value (mouse OC model, Fig. 4j, Ctrl […]) was 0.16%.
